Laboratory results as given in US9801855B2, “Nanocrystalline solid dispersion compositions and process of preparation thereof” (NATIONAL INSTITUTE OF PHARMACEUTICAL EDUCATION AND RESEARCH …, priority 2012, dated 2017).

Key:
[1] = Dissolution of powder and dispersion in 900 ml of 100 mM pH 6.8 phosphate buffer at 100 rpm; type: physicochemical; conditions: 60 mg equivalent
Procedure: • i. 2 gm of hesperetin was dissolved in 150 ml of methanol • ii. 2 gm of mannitol was dissolved in 50 ml of distilled water. • iii. Aqueous mannitol solution was added to methanolic solution of hesperetin. The solution was spray dried using following parameters (Table 10). • iv. DSC and MDSC indicated the crystalline nature of hesperetin in the dispersion. The crystallite size measured from powder X-ray diffraction peak broadening (FIG. 14) by Scherrer equation was 141.06 nm. • v. The dissolution profiles of hesperetin powder and dispersion in 900 ml of 100 mM pH 6.8 phosphate buffer at 100 rpm are presented in Table 11. 60 mg equivalent of hesperetin as powder and dispersion were taken for dissolution studies. • i. 2 gm of Naringenin was dissolved in 150 ml of methanol • ii. 2 gm of mannitol was dissolved in 50 ml of distilled water. • iii. Aqueous mannitol solution was added to methanolic solution of naringenin. The solution was spray dried using following parameters (Table 12). • iv. DSC and MDSC indicated the crystalline nature of naringenin in the dispersion. The crystallite size measured from powder X-ray diffraction peak broadening (FIG. 15) by Scherrer equation was 210.63 nm. • v. The dissolution profiles of naringenin powder and dispersion in 900 ml of 100 mM pH 6.8 phosphate buffer at 100 rpm are presented in Table 13. 60 mg equivalent of naringenin as powder and dispersion were taken for dissolution studies.

[2] = Dissolution of curcumin powder and dispersion in fasted state simulated gastric fluid; type: physicochemical; conditions: fasted state simulated gastric fluid pH 1.6, 37° C., 100 rpm, 25 mg equivalent
Procedure: • i. 2 gm of curcumin and 2 gm of stearic acid were dissolved in 200 ml of acetone. • ii. The solution was spray dried using following parameters (Table 1). • iii. DSC and MDSC indicated the crystalline nature of curcumin in the dispersion. The crystallite size measured from powder X-ray diffraction peak broadening by Scherrer equation was 398.6 nm. • iv. Fasted state simulated gastric fluid contained sodium taurocholate (80 μM), lecithin (20 μM), pepsin (0.1 mg/ml), sodium chloride (34.2 mM), sodium lauryl sulphate (0.05% w/v) and hydrochloric acid (q.s. pH 1.6). Samples equivalent to 25 mg of CRM were added into 900 ml dissolution medium and incubated at 37±0.5° C. at 100 rpm.

in vivo = conditions: female, SD, rat, po, 250 mg/kg

% Release ([1]; 0 min) [%]	% Release ([1]; 3 min) [%]	% Release ([1]; 5 min) [%]	% Release ([1]; 10 min) [%]	% Release ([1]; 15 min) [%]	% Release ([1]; 30 min) [%]	% Release ([1]; 60 min) [%]	% Release ([1]; 120 min) [%]	SMILES	further results
1.60	5.84	9.54	11.52	17.32	23.34	26.25	25.14	O=C1C[C@@H](c2ccc(O)cc2)Oc2cc(O)cc(O)c21 [Naringenin powder, naringenin]	
0.00	1.25	3.06	2.15	1.06	1.48	3.74	7.47	COc1ccc([C@@H]2CC(=O)c3c(O)cc(O)cc3O2)cc1O [Hesperetin powder, hesperetin]	
								COc1cc(/C=C/C(=O)CC(=O)/C=C/c2ccc(O)c(OC)c2)ccc1O [Curcumin powder, curcumin]	% Release ([2]; 5 min): 10.8%; % Release ([2]; 10 min): 15.0%; % Release ([2]; 15 min): 15.4%; % Release ([2]; 20 min): 15.1%; % Release ([2]; 30 min): 15.1%; % Release ([2]; 40 min): 15.2%; % Release ([2]; 60 min): 15.0%; % Release ([2]; 80 min): 15.2%; % Release ([2]; 100 min): 15.6%; % Release ([2]; 120 min): 15.3%
								COc1cc(/C=C/C(=O)CC(=O)/C=C/c2ccc(O)c(OC)c2)ccc1O [Control, curcumin]	AUC(0-inf) (in vivo): 76.2 ng·h/mL; Cmax (in vivo): 58.1 ng/mL; Tmax (in vivo): 0.6 ± 0.1 h; half-life (in vivo): 1.4 ± 0.3 h
